Assay results published in patent publication US10717734B2, “Indole and azaindole haloallylamine derivative inhibitors of lysyl oxidases and uses thereof” (PHARMAXIS LTD., priority 2016, dated 2020).
Structures can show the parent of a compound that is named as a salt.

Key:
Format in all cases: biochemical
Human LOXL2 = Human LOXL2 (Homo sapiens (Human), UniProt Q9Y4K0); assay: LOXL2 inhibition, peroxidase-coupled Amplex Red amine oxidase assay; settings: 30 min preincubation at 37° C., putrescine substrate
Text: (§1) Method to Determine the Ability of Compounds of the Invention to Inhibit LOX and LOXL1-4 from Different Sources
(§2) Lysyl oxidase (LOX) is an extracellular copper dependent enzyme which oxidizes peptidyl lysine and hydroxylysine residues in collagen and lysine residues in elastin to produce peptidyl alpha-aminoadipic-delta-semialdehydes. […] There are five LOX family members; these are LOX, LOXL1, LOXL2, LOXL3 and LOXL4. LOX and LOXL family members can be acquired as recombinant active proteins from commercial sources, or extracted from animal tissues like bovine aorta, tendons, pig skin; or prepared from cell cultures. The inhibitory effects of the compounds of the present invention were tested against the given LOX-LOXL preparation using a high-throughput coupled colorimetric method (Holt A. and Palcic M., A peroxidase-coupled continuous absorbance plate-reader assay for flavin monoamine oxidases, copper-containing amine oxidases and related enzymes. Nat. Protoc. 2006; 1: 2498-2505). The assay was developed using either 384 or 96 well format. Briefly, in a standard 384 well plate assay 25 μL of a dilution of any of the isoenzymes and orthologues in 1.2 M urea, 50 mM sodium borate buffer (pH 8.2) were added into each well in the presence of 1 μM mofegiline and 0.5 mM pargyline (to inhibit SSAO and MAO-B and MAO-A, respectively). Test compounds were dissolved in DMSO and tested in a Concentration Response Curve (CRC) with 11 data points, typically in the micromolar or nanomolar range after incubation with the enzyme for 30 min at 37° C. Twenty five μL of a reaction mixture containing twice the KM concentration of putrescine (Sigma Aldrich, e.g. 20 mM for LOX, or 10 mM for LOXL2 and LOXL3), 120 μM Amplex Red (Sigma Aldrich) and 1.5 U/mL horseradish peroxidase (Sigma Aldrich) prepared in 1.2 M urea, 50 mM sodium borate buffer (pH 8.2) were then added to the corresponding wells. The above volumes were doubled in the case of 96 wells plate. The fluorescence (RFU) was read every 2.5 min for 30 min at a range of temperatures from 37° to 45° C., excitation 565 nm and emission 590 (Optima; BMG labtech). The slope of the kinetics for each well was calculated using MARS data analysis software (BMG labtech) and this value was used to deduce the IC50 value (Dotmatics).

[1] = biological target: Human recombinant SSAO/VAP-1 (Homo sapiens (Human), UniProt Q16853); assay: Human recombinant SSAO/VAP-1 amine oxidase inhibition; settings: 30 min preincubation at 37° C., 600 μM benzylamine
Method: Method to Determine the Ability of Compounds of Formula I to Inhibit Human Recombinant SSAO/VAP-1
Human recombinant SSAO/VAP-1 amine oxidase activity was determined using the coupled colorimetric method as described for monoamine oxidase, copper-containing amine oxidases and related enzymes (Holt A. and Palcic M., A peroxidase-coupled continuous absorbance plate-reader assay for flavin monoamine oxidases, copper-containing amine oxidases and related enzymes. Nat Protoc 2006; 1: 2498-2505). Briefly, a cloned cDNA template corresponding to residues 34-763 of human SSAO/VAP-1, and incorporating a mouse Ig kappa (κ) signal sequence, N-terminal flag epitope tag and tobacco etch virus (TEV) cleavage site, was assembled in a mammalian expression vector (pLO-CMV) by Geneart AG. This vector containing human SSAO/VAP-1 residues was transfected into CHO-K1 glycosylation mutant cell line, Lec 8. A clone stably expressing human SSAO/VAP-1 was isolated and cultured in large scale. Active human SSAO/VAP-1 was purified and recovered using immunoaffinity chromatography. This was used as the source for SSAO/VAP-1 activity. A high-throughput colorimetric assay was developed using either 96 or 384 well format. Briefly, in a standard 96 well plate assay 50 μL of purified human SSAO/VAP-1 (0.25 μg/mL) in 0.1 M sodium phosphate buffer (pH 7.4) was added into each well. Test compounds were dissolved in DMSO and tested in a Concentration Response Curve (CRC) with 4-11 data points, typically in the micromolar or nanomolar range after incubation with human SSAO/VAP-1 for 30 min at 37° C. After 30 min incubation, 50 μL of the reaction mixture containing 600 μM benzylamine (Sigma Aldrich), 120 μM Amplex Red (Sigma Aldrich) and 1.5 U/mL horseradish peroxidase (Sigma Aldrich) prepared in 0.1 M sodium phosphate buffer (pH 7.4) were added to the corresponding well. The fluorescence unit (RFU) was read every 2.5 min for 30 min at 37° C. excitation 565 nm and emission 590 (Optima; BMG labtech). The slope of the kinetics for each well was calculated using MARS data analysis software (BMG labtech) and this value was used to deduce the IC50 value (Dotmatics).

Bovine LOX = Bovine LOX (Bos taurus (Bovine), UniProt P33072); assay: LOX inhibition, peroxidase-coupled Amplex Red amine oxidase assay; settings: 30 min preincubation at 37° C., putrescine substrate
Text: as §1
as §2, with “Test compounds were dissolved in DMSO and tested in a Concentration Response Curve (CRC) with 11 data points, typically in the micromolar or nanomolar range after incubation with the enzyme for 30 min at 37° C.” left out

Recombinant human MAO-B = Recombinant human MAO-B (Homo sapiens (Human), UniProt P27338); assay: Human recombinant MAO-B inhibition; settings: benzylamine 100 μM
Method: Method to Determine the Ability of Compounds of Formula I to Inhibit Human Recombinant MAO-B
The specificity of the compounds of this invention was tested by determining their ability to inhibit MAO-B activities in vitro. Recombinant human MAO-B (0.06 mg/mL; Sigma Aldrich) was used as source of MAO-B enzyme activities. The assay was performed in a similar way as for human SSAO/VAP-1 (Example 36) except, the substrate benzylamine was used at 100 μM.

Human recombinant SSAO/VAP-1, sequence (Q16853 34-763): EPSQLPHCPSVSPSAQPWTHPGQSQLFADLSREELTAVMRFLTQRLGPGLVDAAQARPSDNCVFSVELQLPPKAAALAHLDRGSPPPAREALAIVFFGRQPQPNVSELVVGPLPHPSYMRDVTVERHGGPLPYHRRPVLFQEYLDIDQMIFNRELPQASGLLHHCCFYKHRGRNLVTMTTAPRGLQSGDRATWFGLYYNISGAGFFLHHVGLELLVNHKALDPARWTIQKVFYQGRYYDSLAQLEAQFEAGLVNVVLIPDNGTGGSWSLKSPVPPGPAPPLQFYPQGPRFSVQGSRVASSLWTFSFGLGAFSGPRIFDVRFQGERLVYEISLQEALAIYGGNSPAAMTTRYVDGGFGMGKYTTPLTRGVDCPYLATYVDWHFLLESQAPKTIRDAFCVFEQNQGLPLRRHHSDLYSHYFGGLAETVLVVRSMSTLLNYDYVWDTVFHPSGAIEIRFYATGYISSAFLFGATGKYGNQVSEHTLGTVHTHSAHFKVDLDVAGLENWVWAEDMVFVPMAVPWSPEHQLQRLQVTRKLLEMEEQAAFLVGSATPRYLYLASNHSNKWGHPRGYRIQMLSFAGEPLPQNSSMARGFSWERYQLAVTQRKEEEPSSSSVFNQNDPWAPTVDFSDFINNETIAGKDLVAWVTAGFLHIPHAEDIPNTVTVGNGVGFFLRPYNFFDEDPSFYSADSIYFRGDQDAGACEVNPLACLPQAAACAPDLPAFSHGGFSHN
Bovine LOX, sequence (P33072 170-418): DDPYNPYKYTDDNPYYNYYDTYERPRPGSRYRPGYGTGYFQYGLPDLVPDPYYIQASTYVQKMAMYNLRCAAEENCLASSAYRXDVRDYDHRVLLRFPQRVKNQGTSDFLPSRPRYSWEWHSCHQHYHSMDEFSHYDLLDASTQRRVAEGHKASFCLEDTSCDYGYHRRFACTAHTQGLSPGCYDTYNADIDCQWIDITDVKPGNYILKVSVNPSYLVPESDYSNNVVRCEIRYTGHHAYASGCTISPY
Recombinant human MAO-B, sequence (P27338 whole entry): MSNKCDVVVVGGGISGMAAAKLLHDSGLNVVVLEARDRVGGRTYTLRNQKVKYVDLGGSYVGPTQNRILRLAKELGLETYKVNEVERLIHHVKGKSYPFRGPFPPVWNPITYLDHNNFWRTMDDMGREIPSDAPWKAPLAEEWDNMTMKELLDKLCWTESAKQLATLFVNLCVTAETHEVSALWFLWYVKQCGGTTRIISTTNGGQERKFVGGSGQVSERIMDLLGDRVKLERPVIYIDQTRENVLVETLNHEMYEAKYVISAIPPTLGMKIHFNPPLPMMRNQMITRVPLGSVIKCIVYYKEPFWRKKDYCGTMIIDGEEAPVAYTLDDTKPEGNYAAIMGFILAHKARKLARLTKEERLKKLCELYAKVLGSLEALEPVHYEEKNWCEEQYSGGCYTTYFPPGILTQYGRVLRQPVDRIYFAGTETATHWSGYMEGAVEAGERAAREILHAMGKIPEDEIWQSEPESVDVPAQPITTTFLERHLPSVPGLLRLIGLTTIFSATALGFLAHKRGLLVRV
Human LOXL2, sequence (Q9Y4K0 26-774): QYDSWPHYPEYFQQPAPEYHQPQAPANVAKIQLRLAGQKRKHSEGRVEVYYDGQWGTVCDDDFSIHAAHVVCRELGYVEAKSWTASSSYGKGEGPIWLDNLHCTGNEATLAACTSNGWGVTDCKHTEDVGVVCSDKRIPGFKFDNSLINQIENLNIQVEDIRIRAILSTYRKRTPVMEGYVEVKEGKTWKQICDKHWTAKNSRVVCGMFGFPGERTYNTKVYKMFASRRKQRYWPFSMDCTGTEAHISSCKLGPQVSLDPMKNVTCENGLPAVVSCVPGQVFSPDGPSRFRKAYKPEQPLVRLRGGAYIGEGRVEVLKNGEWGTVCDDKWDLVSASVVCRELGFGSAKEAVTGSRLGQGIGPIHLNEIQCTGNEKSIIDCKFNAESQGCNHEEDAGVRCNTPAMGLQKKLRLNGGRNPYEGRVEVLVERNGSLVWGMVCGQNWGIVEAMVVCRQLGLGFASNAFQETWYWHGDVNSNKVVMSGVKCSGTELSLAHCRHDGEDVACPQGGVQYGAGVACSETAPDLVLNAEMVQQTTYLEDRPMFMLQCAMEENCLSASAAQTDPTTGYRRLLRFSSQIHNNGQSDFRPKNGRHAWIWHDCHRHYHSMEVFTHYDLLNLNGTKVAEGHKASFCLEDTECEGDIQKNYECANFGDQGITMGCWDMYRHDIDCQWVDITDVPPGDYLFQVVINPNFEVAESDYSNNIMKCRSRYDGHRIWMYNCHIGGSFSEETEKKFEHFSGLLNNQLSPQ

Work on `Cc1c(Cc2cccc(S(=O)(=O)N(C)C)c2)c2cc(S(=O)(=O)N(C)C)ccc2n1C/C(F)=C/CN` [Compound 7, (Z)-1-(4-amino-2-fluorobut-2-en-1-yl)-3-(3-(N,N-dimethylsulfamoyl)benzyl)-N,N,2-trimethyl-1H-indole-5-sulfonamide hydrochloride] yielded an IC50 (Human LOXL2) of less than 300 nM, an IC50 [1] greater than 3000 nM and an IC50 (Bovine LOX) greater than 300 nM. The IC50 (Recombinant human MAO-B) was greater than 3000 nM.

Molecule `Cc1c(Oc2ccc(S(=O)(=O)N(C)C)cc2)c2ccccc2n1C/C(F)=C/CN` [Compound 21, (Z)-4-((1-(4-amino-2-fluorobut-2-en-1-yl)-2-methyl-1H-indol-3-yl)oxy)-N,N-dimethylbenzene-sulfonamide hydrochloride] has an IC50 (Human LOXL2) of less than 300 nM, an IC50 [1] greater than 3000 nM and an IC50 (Bovine LOX) greater than 300 nM. For the same molecule, the IC50 (Recombinant human MAO-B) was greater than 3000 nM.

`COC(=O)c1ccc2c(c1)c(Cc1ccc(S(=O)(=O)N(C)C)cc1)c(C)n2C/C(F)=C/CN` [Compound 2, Methyl (Z)-1-(4-amino-2-fluorobut-2-en-1-yl)-3-(4-(N,N-dimethylsulfamoyl)benzyl)-2-methyl-1H-indole-5-carboxylate hydrochloride] showed an IC50 (Human LOXL2) of less than 300 nM, an IC50 [1] greater than 3000 nM and an IC50 (Bovine LOX) greater than 300 nM. For the same molecule, the IC50 (Recombinant human MAO-B) was greater than 3000 nM.

In the case of `Cc1c(Cc2ccc(S(C)(=O)=O)nc2)c2nc(C(F)(F)F)ccc2n1C/C(F)=C/CN` [Compound 31, (Z)-3-fluoro-4-(2-methyl-3-((6-(methylsulfonyl)pyridin-3-yl)methyl)-5-(trifluoromethyl)-1H-pyrrolo[3,2-b]pyridin-1-yl)but-2-en-1-amine trihydrochloride], the IC50 (Human LOXL2) is reported as less than 300 nM, the IC50 [1] is reported as greater than 3000 nM and the IC50 (Bovine LOX) is reported as greater than 300 nM. The IC50 (Recombinant human MAO-B) was greater than 3000 nM.

`Cc1ccc2c(n1)c(Cc1ccc(S(=O)(=O)N(C)C)nc1)c(C)n2C/C(F)=C/CN` [Compound 16, (Z)-5-((1-(4-amino-2-fluorobut-2-en-1-yl)-2,5-dimethyl-1H-pyrrolo[3,2-b]pyridin-3-yl)methyl)-N,N-dimethylpyridine-2-sulfonamide trihydrochloride] was tested, and the IC50 (Human LOXL2) was less than 300 nM, the IC50 [1] was greater than 3000 nM and the IC50 (Bovine LOX) was greater than 300 nM. The IC50 (Recombinant human MAO-B) was greater than 3000 nM.

In the case of `CC(C)c1c(Cc2ccc(S(=O)(=O)C(C)C)nc2)c2ncccc2n1C/C(F)=C/CN` [Compound 41, (Z)-3-fluoro-4-(2-isopropyl-3-((6-(isopropylsulfonyl)pyridin-3-yl)methyl)-1H-pyrrolo[3,2-b]pyridin-1-yl)but-2-en-1-amine hydrochloride], the IC50 (Human LOXL2) is reported as less than 300 nM, the IC50 [1] is reported as greater than 3000 nM and the IC50 (Bovine LOX) is reported as greater than 300 nM. For the same molecule, the IC50 (Recombinant human MAO-B) was greater than 3000 nM.

Work on `Cc1cnc2c(Cc3ccc(S(=O)(=O)N(C)C)cc3)c(C)n(C/C(F)=C/CN)c2c1` [Compound 11, (Z)-4-((1-(4-amino-2-fluorobut-2-en-1-yl)-2,6-dimethyl-1H-pyrrolo[3,2-b]pyridin-3-yl)methyl)-N,N-dimethylbenzenesulfonamide dihydrochloride] yielded an IC50 (Human LOXL2) of less than 300 nM, an IC50 [1] greater than 3000 nM and an IC50 (Bovine LOX) greater than 300 nM. For the same molecule, the IC50 (Recombinant human MAO-B) was greater than 3000 nM.

`Cc1c(Cc2ccc(S(=O)(=O)N(C)C)cc2)c2ncccc2n1C/C(F)=C/CN` [Compound 8, (Z)-4-((1-(4-amino-2-fluorobut-2-en-1-yl)-2-methyl-1H-pyrrolo[3,2-b]pyridin-3-yl)methyl)-N,N-dimethylbenzenesulfonamide dihydrochloride] gave an IC50 (Human LOXL2) of less than 300 nM, an IC50 [1] greater than 3000 nM and an IC50 (Bovine LOX) greater than 300 nM. It also gave an IC50 (Recombinant human MAO-B) greater than 3000 nM.

Work on `Cc1ccc2c(n1)c(CCc1ccc(S(C)(=O)=O)cc1)c(C)n2C/C(F)=C/CN` [Compound 40, (Z)-4-(2,5-dimethyl-3-(4-(methylsulfonyl)phenethyl)-1H-pyrrolo[3,2-b]pyridin-1-yl)-3-fluorobut-2-en-1-amine dihydrochloride] yielded an IC50 (Human LOXL2) of less than 300 nM, an IC50 [1] greater than 3000 nM and an IC50 (Bovine LOX) greater than 300 nM. For the same molecule, the IC50 (Recombinant human MAO-B) was greater than 3000 nM.

`Cc1c(Cc2ccc(S(C)(=O)=O)nc2)c2nc(C3CC3)ccc2n1C/C(F)=C/CN` [Compound 27, (Z)-4-(5-cyclopropyl-2-methyl-3-((6-(methylsulfonyl)pyridin-3-yl)methyl)-1H-pyrrolo[3,2-b]pyridin-1-yl)-3-fluorobut-2-en-1-amine trihydrochloride] gave an IC50 (Human LOXL2) of less than 300 nM, an IC50 [1] greater than 3000 nM and an IC50 (Bovine LOX) greater than 300 nM. For the same molecule, the IC50 (Recombinant human MAO-B) was greater than 3000 nM.

`CC(C)c1c(C(O)c2ccc(S(C)(=O)=O)nc2)c2ncccc2n1C/C(F)=C/CN` (stereo not shown) [Compound 42, (Z)-(1-(4-amino-2-fluorobut-2-en-1-yl)-2-isopropyl-1H-pyrrolo[3,2-b]pyridin-3-yl)(6-(methylsulfonyl)pyridin-3-yl)methanol dihydrochloride] was tested, and the IC50 (Human LOXL2) was less than 300 nM, the IC50 [1] was greater than 3000 nM and the IC50 (Bovine LOX) was greater than 300 nM. It also gave an IC50 (Recombinant human MAO-B) greater than 3000 nM.

For `Cc1c(Cc2ccc(S(C)(=O)=O)c(Cl)c2)c2ncccc2n1C/C(F)=C/CN` [Compound 35, (Z)-4-(3-(3-chloro-4-(methylsulfonyl)benzyl)-2-methyl-1H-pyrrolo[3,2-b]pyridin-1-yl)-3-fluorobut-2-en-1-amine dihydrochloride], the IC50 (Human LOXL2) was less than 300 nM, the IC50 [1] was greater than 3000 nM and the IC50 (Bovine LOX) was greater than 300 nM. The IC50 (Recombinant human MAO-B) was greater than 3000 nM.

`Cc1ccc2c(n1)c(Cc1ccc(S(C)(=O)=O)cc1)c(C)n2C/C(F)=C/CN` [Compound 12, (Z)-4-(2,5-dimethyl-3-(4-(methylsulfonyl)benzyl)-1H-pyrrolo[3,2-b]pyridin-1-yl)-3-fluorobut-2-en-1-amine dihydrochloride] gave an IC50 (Human LOXL2) of less than 300 nM, an IC50 [1] greater than 3000 nM and an IC50 (Bovine LOX) greater than 300 nM. For the same molecule, the IC50 (Recombinant human MAO-B) was greater than 3000 nM.
